SMILES strings stand for the structures. Entries after “also recorded” stand apart in the source; their conditions may differ. Like-named read-outs stand apart in the source and are kept apart here.

In one series the test system is AML cell line HL-60. Briefly: N-Acetyl cysteine cytotoxicity assay (trypan blue exclusion). In kind it is cell-based. To be noted: Homo sapiens, 96 h. The protocol:
For assays involving cytotoxicity of β-lapachone derivatives with and without antioxidant N-acetyl cysteine, HL-60 cells were plated into 24-well plates at a concentration of 2.5 × 10^5 cells ml^−1 in 450 µl. To each well was then added 25 µl of drug diluted in PBS to obtain the correct in-plate drug concentration, and 25 µl of PBS or a stock of N-acetyl cysteine at 12 mM in PBS. DMSO was maintained at an in-plate concentration of 0.1%. After 96 h incubation, toxicity was assessed by counting of live cells using the trypan blue exclusion method with a Countess II Automated Cell Counter (ThermoFisher Scientific) according to the manufacturer’s instructions. Cell viability was determined by dividing the average live cell number of treated wells by the average live cell number for control wells treated with 0.1% DMSO. Viability for wells treated with N-acetyl cysteine was assessed by comparison with control wells treated with N-acetyl cysteine and 0.1% DMSO. IC50 values were calculated using GraphPad Prism 8 software.

In a further series the test system is ovine blood. Put plainly: Methaemoglobin analysis in ovine blood. More on the design: species or system sheep. As to conditions: for methaemoglobin formation: in vitro ovine blood model, 1 h incubation. As for the experimental part:
Defibrinated Oxoid sheep’s blood (ThermoScientific) was diluted to a 5% v/v suspension in PBS pH 7.4. In a 96-well microtitre plate, 150 µl of blood suspension was added to 50 µl of serially diluted compound in PBS containing a 4× stock of each compound of interest. Serial dilution of compounds from DMSO stocks into PBS was performed to achieve an in-plate DMSO concentration of 0.1%. PBS buffer alone was used as a negative control. The plate was incubated for the specified time at 37 °C. The plate was then centrifuged at 3,500 r.p.m. for 5 min. The supernatant was removed and cells lysed by resuspension in 100 µl of a solution of Triton-X-100 (1%) in PBS. Following this, 80 µl of lysed cell contents were transferred to a second microtitre plate for ultraviolet measurement. Ultraviolet absorbance was measured immediately at 630 nm (MiniMax i3x Imager, Molecular Devices). Methaemoglobin increase was determined by A630−A6300/A6300×100 , where A630 is the absorbance of the test well at 630 nm, and A6300 is the absorbance of the negative control at 630 nm.

Series [1] can be described thus: In vitro redox-cycling phenol red/horseradish peroxidase reporter assay. To be noted: phenol red/HRP with DTT. The protocol:
The in vitro redox-cycling capability of compounds was assessed by phenol red/horseradish peroxidase (HRP) assay by adaption of a previously described protocol. Briefly, stocks were prepared as follows: (1) DTT to a concentration of […] in PBS pH 7.4 buffer; (2) compound stocks in PBS pH 7.4 buffer to 3× the desired concentration by 1,000× dilution of DMSO stocks; (3) a stock of phenol red/HRP detection reagent containing 300 µg ml^−1 phenol red and 180 µg ml^−1 HRP enzyme in PBS pH 7.4 buffer; (4) a stock of 1 M NaOH in water; (5) a stock of 100 µM H2O2 in PBS prepared by addition of a 30% solution of H2O2 in water into 1,000 µl of PBS. Into each well of a 96-well clear flat-bottomed plate was then added 40 µl of compound stock in PBS followed by 40 µl of DTT stock, followed immediately by 40 µl of phenol red/HRP reagent. A positive control with 100 µM H2O2 added in place of compound was included. The plate was incubated in the dark at room temperature for 15 min. Following this, 20 µl of 1 M NaOH was added to each well to terminate the reaction. Absorbance was immediately measured at 610 nm (MiniMax i3x Imager, Molecular Devices). Absorbance of treated wells was normalized to control wells treated with PBS only (zero redox cycling).

In a further series the target is T1, recombinant human 5-LO (Homo sapiens, UniProt P09917).
T1 construct: made in house; host or cells: Escherichia coli BL21
T1 sequence (P09917 1-674): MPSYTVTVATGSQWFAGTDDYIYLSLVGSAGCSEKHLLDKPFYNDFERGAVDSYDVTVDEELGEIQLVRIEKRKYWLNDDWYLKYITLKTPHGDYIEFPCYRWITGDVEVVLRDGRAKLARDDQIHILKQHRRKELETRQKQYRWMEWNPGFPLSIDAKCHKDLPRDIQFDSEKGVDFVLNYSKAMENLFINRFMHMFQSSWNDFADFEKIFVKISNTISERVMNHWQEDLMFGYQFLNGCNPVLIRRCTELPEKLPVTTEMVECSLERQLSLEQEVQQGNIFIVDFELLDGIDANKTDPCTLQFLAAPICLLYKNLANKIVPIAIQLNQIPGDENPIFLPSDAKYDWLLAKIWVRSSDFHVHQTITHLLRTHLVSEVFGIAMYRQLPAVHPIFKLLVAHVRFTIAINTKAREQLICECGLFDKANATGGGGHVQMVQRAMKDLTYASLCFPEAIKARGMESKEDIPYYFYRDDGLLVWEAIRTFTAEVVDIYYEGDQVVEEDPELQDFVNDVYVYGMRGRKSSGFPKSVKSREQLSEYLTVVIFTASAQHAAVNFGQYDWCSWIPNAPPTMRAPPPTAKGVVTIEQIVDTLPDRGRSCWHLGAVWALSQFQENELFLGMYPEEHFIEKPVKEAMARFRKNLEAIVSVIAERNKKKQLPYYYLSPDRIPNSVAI
Put plainly: Cell-free activity assay for recombinant human 5-LO. In kind it is biochemical. The protocol: Escherichia coli (BL21) was transformed with pT3-5-LO plasmid, and recombinant 5-LO protein was expressed at 30 °C as described. Cells were lysed in 50 mM triethanolamine/HCl pH 8.0, 5 mM EDTA, 1 mM phenylmethanesulfonyl fluoride, soybean trypsin inhibitor (60 μg ml^−1) and lysozyme (1 mg ml^−1), homogenized by sonication (3 × 15 s) and centrifuged at 40,000g for 20 min at 4 °C. The 40,000g supernatant (S40) was applied to an ATP–agarose column to partially purify 5-LO as described. Aliquots of semipurified 5-LO (0.5 μg) were diluted with 1 ml ice-cold PBS containing 1 mM EDTA. Samples were preincubated with the test compound or vehicle (0.1% DMSO) with or without 1 mM DTT, as indicated. After 10 min at 4 °C, samples were prewarmed for 30 s at 37 °C, and 2 mM CaCl2 plus 20 μM arachidonic acid was added to start the formation of 5-LO products. After 10 min, the reaction was stopped by addition of 1 volume of ice-cold methanol, and the formed 5-LO products were analysed by reverse-phase HPLC as described. 5-LO products include the all-trans isomers of LTB4 (trLTB4 isomers) and 5(S)-hydroperoxy-6-trans-8,11,14-cis-eicosatetraenoic acid and its corresponding alcohol 5(S)-hydroxy-6-trans-8,11,14-cis-eicosatetraenoic acid.

[2] abbreviates: with ROS quencher NAC (600 µM), read-out: IC50, toxicity to HL-60 with NAC.
The mark [3] stands for this setting: without NAC, read-out: IC50, toxicity to HL-60 without NAC.
Where [4] appears, read: without DTT, read-out: IC50, 5-LO inhibition without DTT.

With `CC1(C)CCC2=C(O1)c1ccccc1C(=O)C2=O` [Compound 1, β-lapachone, reference compound], the figures for the IC50 with AML cell line HL-60 (setting [2]), in the series on AML cell line HL-60 (setting [3]) and at recombinant human 5-LO (setting [4]) were 1.18 ± 0.18 µM, 0.47 ± 0.26 µM and greater than 30 µM, respectively. In addition, the “lowest dose concentration with detectable methaemoglobin formation” value with ovine blood (after 1 h of incubation) worked out at 10 µM. Further, the methaemoglobin formation result in the series with ovine blood is reported as “dose-dependent methaemoglobin formation”. The “concentration above which redox activity saturates the assay” value in series [1] is on record as “above 10 μM”.

With `CC1(C)CCC2=C(O1)c1ccccc1C(O)(Cc1ccccc1)C2=O` (stereo not drawn) [Compound 24, benzyl β-lapa-ketol], the IC50 in the series on AML cell line HL-60 (setting [2]) came out at 10.5 ± 0.9 µM; in the series with AML cell line HL-60 (setting [3]), 13.6 ± 1.3 µM; on recombinant human 5-LO (with DTT (1 mM), read-out: IC50, 5-LO inhibition with DTT), 10.4 ± 4.1 µM; on recombinant human 5-LO (setting [4]), 8 ± 2.5 µM. Besides, in the series with ovine blood, the methaemoglobin formation result is “did not occur”. Besides, the “in vitro redox activity” value in series [1] (up to 25 μM) is listed as “non-redox active; also recorded: no measurable redox activity”.

The record behind these values is PMC9252919, “Controlled masking and targeted release of redox-cycling ortho-quinones via a C–C bond-cleaving 1,6-elimination” (Nature Chemistry, 2022).
